Reference: EP0646579A1, “Ketonic indane derivatives and heterocyclic analysis and their use in therapy” (LABORATOIRE INNOTHERA Société Anonyme, priority 1993, dated 1995)

Legend:
veines saphènes de lapin = test: Contraction of isolated rabbit saphenous veins produced by KCl (40 mM); type: cell-based; conditions: for augmentation des contractions des veines saphènes de lapin produites par le KCl: KCl 40 mM, compounds 10 nM à 30 mM; for EC50: increase of KCl (40 mM) contraction of rabbit saphenous veins, read-out: DE₅₀
Text: L'effet contractile est mesuré in vitro : • par la force de contraction développée par des anneaux vasculaires quiescents ou stimulés (soit électriquement soit par des agents physiologiques) et maintenus dans des conditions isométriques, • par la pression développée par des réseaux vasculaires perfusés à débit constant.
Les composés de formule (I) et leurs sels éventuels augmentent la contraction des veines saphènes animales produite par la noradrénaline et la dépolarisation (solution hyperpotassique) sans affecter, dans la majorité des cas, les réponses contractiles artérielles. A titre illustratif, les composés des exemples 1, 2, 3, 5 (10 nM à 30 mM) augmentent de plus de 40 % (DE₅₀ + 0,3 microM) les contractions des veines saphènes de lapin produites par le KCl (40 mM).

rat = test: Carrageenan-induced pleurisy in the rat; type: in vivo; conditions: 5 mg/kg i.p. twice; for migration leucocytaire dans la cavité pleurale: 6 hours after carrageenan injection; for oedème: 6 hours after carrageenan injection into the pleural cavity
Procedure: L'activité antiinflammatoire est démontrée par la mesure de l'inhibition de l'oedème et de la migration leucocytaire après induction d'une pleurésie chez le rat par injection de carragénine dans la cavité pleurale (Almeida et col., J. Pharmacol. Exp. Therap., 1980, 214 : 74).
Le composé des exemples 31, 3, 5 administrés deux fois en i.p. à la dose de 5 mg/kg inhibent l'oedème et la migration leucocytaire dans la cavité pleurale, 6 heures après injection de carragénine dans le modèle de la pleurésie chez le rat.

[1] = test system: hyperperméabilité vasculaire induite par le zymosan; test: Vascular hyperpermeability induced by zymosan, in vivo; conditions: oral administration of 1-20 mg/kg
Text: La perméabilité vasculaire est étudiée in vivo et in vitro par la mesure de l'extravasation d'albumine ou de colorant liant l'albumine (Bleu Evans). In vivo, l'hyperperméabilité est induite par l'injection d'une solution d'histamine, de bradykinine ou de zymosan. Les modèles in vitro permettent de réaliser des hyperpressions (sur un territoire vasculaire isolé) et/ou des réactions vasculaires inflammatoires.
A titre illustratif, les composés des exemples 1, 2, 3, 5 inhibent l'hyperperméabilité vasculaire induite par le zymosan après administration orale de 1-20 mg/kg.

[2] = Free radical scavenging, DPPH model; type: biochemical; conditions: DPPH as stable free radical, in vitro
Text: L'effet "piégeur de radicaux libres" global est étudié in vitro par un modèle utilisant le 1,1-diphényl-2-picrylhydrazyl (DPPH) comme radical libre stable, méthode dérivée de celle décrite par Lamaison et col., Plantes Médic. et Phytothérapie, XXII, 1988, 231-234.

O=c1c(=NNc2nc3cnccc3[nH]2)c(=O)c2ccccc12 [exemple 5, 2-(5-Azabenzimidazol-2-yl-hydrazono)-2.3-dihydro-1.3-dioxo-1H-indene]
augmentation des contractions des veines saphènes de lapin produites par le KCl (veines saphènes de lapin): > 40% | EC50 (veines saphènes de lapin): ~300 nM | migration leucocytaire dans la cavité pleurale (rat): inhibent | oedème (rat): inhibent | hyperperméabilité vasculaire induite par le zymosan [1]: inhibent

O=c1c(=NNc2nc3ccccc3o2)c(=O)c2ccccc12 [exemple 2, 2-(Benzoxazol-2-yl-hydrazono)-2.3-dihydro-1.3-dioxo-1H-indene]
effet antiradicalaire [2]: effet antiradicalaire | augmentation des contractions des veines saphènes de lapin produites par le KCl (veines saphènes de lapin): > 40% | EC50 (veines saphènes de lapin): ~300 nM | hyperperméabilité vasculaire induite par le zymosan [1]: inhibent

O=c1c(=NNc2nc3ccccc3s2)c(=O)c2ccccc12 [exemple 1, 2-(Benzothiazol-2-yl-hydrazono)-2.3-dihydro-1.3-dioxo-1H-indene]
augmentation des contractions des veines saphènes de lapin produites par le KCl (veines saphènes de lapin): > 40% | EC50 (veines saphènes de lapin): ~300 nM | hyperperméabilité vasculaire induite par le zymosan [1]: inhibent

O=c1c(=NNc2nc3ccccc3[nH]2)c(=O)c2ccccc12 [exemple 3, 2-(Benzimidazol-2-yl-hydrazono)-2.3-dihydro-1.3-dioxo-1H-indene]
augmentation des contractions des veines saphènes de lapin produites par le KCl (veines saphènes de lapin): > 40% | EC50 (veines saphènes de lapin): ~300 nM | migration leucocytaire dans la cavité pleurale (rat): inhibent | oedème (rat): inhibent | hyperperméabilité vasculaire induite par le zymosan [1]: inhibent

O=C(NN=c1c(=O)c2cccnc2c1=O)Nc1ccccc1 [exemple 6, 5.7-Dioxo-6-(phenylaminocarbonylhydrazono)cyclopenta[b]pyridine]
effet antiradicalaire [2]: effet antiradicalaire
